# Molecular target: T1, human type 5 17β-HSD (Homo sapiens, UniProt P42330)
# T1 construct: encodes a protein having 323 amino acids with a calculated molecular weight of 36,844 daltons; expressed in transfected cells; host or cells: human embryonal kidney 293 cells (ATCC CRL 1573), transient transfection with pCMV vector
# T1 sequence (P42330 1-323 H5Q): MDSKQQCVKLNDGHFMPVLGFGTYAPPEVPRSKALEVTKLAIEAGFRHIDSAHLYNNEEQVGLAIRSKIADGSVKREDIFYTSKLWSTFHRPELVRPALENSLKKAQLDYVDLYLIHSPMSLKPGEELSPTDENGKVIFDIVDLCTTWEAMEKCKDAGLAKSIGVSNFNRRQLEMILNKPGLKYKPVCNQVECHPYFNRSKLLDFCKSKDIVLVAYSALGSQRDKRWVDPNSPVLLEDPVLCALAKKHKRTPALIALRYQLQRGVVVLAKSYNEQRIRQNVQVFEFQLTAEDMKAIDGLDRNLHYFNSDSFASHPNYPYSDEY
# Assay: Assay of enzymatic activity (substrate specificity) in 293 cells transfected with human type 5 17β-HSD
# Format: cell-based
# Settings: 0.1 μM 14C-labeled substrate, 1 hour incubation, transfected embryonal kidney (293) cells, FIG. 1A
# Description: The concentration of each substrate was 0.1 μM. […] The substrates, progesterone (P) and Δ^4 -dione, were added at a concentration of 0.1 μM;
# The vectors were transfected using the calcium phosphate procedure described by Kingston, R. E., In: Current Protocols in Molecular Biology, Ausubel et al. eds., pp. 9.1.1-9.1.9, John Wiley & Sons, N.Y. (1987) and used 1 to 10 μg of recombinant plasmid DNA per 10^6 cells. The total amount of DNA is kept at 10 μg of plasmid DNA per 10^6 cells by completing with pCMV plasmid without insert. The cells were initially plated at 10^4 cells/cm^2 in Falcon® culture flasks and grown in Dulbecco's modified Eagle's medium containing 10% (vol/vol) fetal bovine serum (hyclone, Logan, Utah) under a humidified atmosphere of air/CO^2 (95%/5%) at 37° C. and supplemented with 2 mM L-glutamine, 1 mM sodium pyruvate, 100 IU penicillin/ml, and 100 μbg streptomycin sulfate/ml.
# See also Lachance et al., J. Biol. Chem., 265:20469-20475 (1990). […] After incubation for 1 hour, the steroids were extracted twice with 2 ml of ether. The organic phase was pooled and evaporated to dryness. The steroids were solubilized in 50 μl of dichloromethane, applied to a Silica gel 60 thin layer chromatography (TLC) plate (Merck, Darmstad, Germany) and then separated by migration in the toluene-acetone (4:1) solvent system (Luu-The, V. et al., J. Invest. Dennatol., 102:221-226 (1994) which is herein incorporated by reference).
# As described above, the enzymatic activity of the type 5 17β-HSD was evaluated by transfecting 293 cells with vectors which included the gene encoding human type 5 17β-HSD.
smiles,measurement,value
"C[C@]12CCC(=O)C[C@@H]1CC[C@@H]1[C@@H]2CC[C@]2(C)[C@@H](O)CC[C@@H]12 [DHT, dihydrotestosterone]","3α-HSD activity (transformation of DHT to 5α-androstane-3α,17β-diol)",negligible
"C[C@]12CC[C@@H]3c4ccc(O)cc4CC[C@H]3[C@@H]1CC[C@@H]2O [E2, estradiol]",ability of the enzyme to transform E1 and E2,negligible
CC(=O)[C@H]1CC[C@H]2[C@@H]3CCC4=CC(=O)CC[C@]4(C)[C@H]3CC[C@]12C [progesterone],reductive 20α-HSD activity (progesterone transformed to 20α-OH-P),high
"C[C@]12CCC(=O)C=C1CC[C@@H]1[C@@H]2CC[C@]2(C)C(=O)CC[C@@H]12 [Δ^4dione, 4-androstene-3,17-dione]",17β-HSD activity (Δ4-dione converted to testosterone),high
